# ChEMBL document CHEMBL4428063, “Novel Pyrimidine Toll-like Receptor 7 and 8 Dual Agonists to Treat Hepatitis B Virus” (J Med Chem, 2016)
# Activity calls are given as the source filed them. The calls are words filed in the database; no cut-off is given here.
# Key:
# [1] = Tmax in Sprague-Dawley rat plasma at 10 mg/kg, po; format: ADME, organism-based
# [2] = Cmax in Sprague-Dawley rat liver at 10 mg/kg, po; format: ADME, organism-based; set-up: dose 10 mg/kg, route oral
# [3] = Intrinsic clearance in C57Bl/6 mouse hepatocytes at 1 uM measured after 120 mins; format: ADME, cell-based, Hepatocyte; conditions: 2 h
# [4] = Plasma concentration in C57Bl/6 mouse infected with HBV genotype D at 5 mg/kg, po dosed once per week for 8 weeks administered 6 weeks after viral infection and measured on day 42 post 1 hr of dosage; format: ADME, organism-based; conditions: in vivo
# [5] = target: Toll-like receptor 5 (Homo sapiens) (UniProt O60602); assay: Agonist activity at wild-type human TLR5 expressed in HEK293 cells up to 25 uM measured after 6 hrs by NF-kappaB luciferase reporter gene assay; format: cell-based
# Toll-like receptor 5 (Homo sapiens), sequence (O60602 whole entry): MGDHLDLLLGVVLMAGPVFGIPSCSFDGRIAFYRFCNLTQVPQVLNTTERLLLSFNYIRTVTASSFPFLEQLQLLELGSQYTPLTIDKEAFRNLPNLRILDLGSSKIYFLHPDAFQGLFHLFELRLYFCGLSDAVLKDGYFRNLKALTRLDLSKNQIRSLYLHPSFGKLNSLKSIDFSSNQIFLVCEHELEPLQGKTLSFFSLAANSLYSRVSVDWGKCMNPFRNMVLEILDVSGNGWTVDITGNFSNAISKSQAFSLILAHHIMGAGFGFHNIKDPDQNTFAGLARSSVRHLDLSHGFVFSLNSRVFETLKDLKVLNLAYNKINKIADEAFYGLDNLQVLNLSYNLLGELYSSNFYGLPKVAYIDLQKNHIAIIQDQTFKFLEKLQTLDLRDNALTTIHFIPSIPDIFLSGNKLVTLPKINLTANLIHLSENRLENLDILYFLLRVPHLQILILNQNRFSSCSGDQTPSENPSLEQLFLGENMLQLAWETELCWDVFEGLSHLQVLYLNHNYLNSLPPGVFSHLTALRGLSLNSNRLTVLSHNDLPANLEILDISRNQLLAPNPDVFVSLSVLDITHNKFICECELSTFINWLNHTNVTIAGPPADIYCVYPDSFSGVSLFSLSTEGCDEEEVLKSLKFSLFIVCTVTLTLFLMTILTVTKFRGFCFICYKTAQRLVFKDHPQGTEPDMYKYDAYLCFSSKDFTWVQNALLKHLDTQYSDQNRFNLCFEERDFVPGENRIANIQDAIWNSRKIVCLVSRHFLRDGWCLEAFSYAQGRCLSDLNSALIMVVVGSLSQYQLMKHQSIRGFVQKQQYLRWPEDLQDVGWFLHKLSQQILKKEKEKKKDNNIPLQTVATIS
# [6] = Tmax in Sprague-Dawley rat liver at 10 mg/kg, po; format: ADME, organism-based
# [7] = Cmax in cynomolgus monkey plasma at 3 mg/kg, administered through oral gavage measured after 24 hrs; format: ADME, organism-based, Macaca fascicularis; set-up: dose 3 mg/kg, route oral
# [8] = Tmax in cynomolgus monkey plasma at 30 mg/kg, administered through oral gavage measured after 24 hrs; format: ADME, organism-based, Macaca fascicularis
# [9] = Intrinsic clearance in human hepatocytes at 1 uM measured after 120 mins; format: ADME, cell-based, Hepatocyte; conditions: 2 h
# [10] = Fraction absorbed in Sprague-Dawley rat plasma at 10 mg/kg, po; format: ADME, organism-based; conditions: read-out: Fabs
# [11] = AUC(0 to last) in cynomolgus monkey plasma at 30 mg/kg, administered through oral gavage measured after 24 hrs; format: ADME, organism-based, Macaca fascicularis; set-up: dose 30 mg/kg, time 0 - last, route oral
# [12] = target: Toll-like receptor 3 (Homo sapiens) (UniProt O15455); assay: Agonist activity at wild-type human TLR3 expressed in HEK293 cells up to 25 uM measured after 6 hrs by NF-kappaB luciferase reporter gene assay; format: cell-based
# Toll-like receptor 3 (Homo sapiens), sequence (O15455 whole entry): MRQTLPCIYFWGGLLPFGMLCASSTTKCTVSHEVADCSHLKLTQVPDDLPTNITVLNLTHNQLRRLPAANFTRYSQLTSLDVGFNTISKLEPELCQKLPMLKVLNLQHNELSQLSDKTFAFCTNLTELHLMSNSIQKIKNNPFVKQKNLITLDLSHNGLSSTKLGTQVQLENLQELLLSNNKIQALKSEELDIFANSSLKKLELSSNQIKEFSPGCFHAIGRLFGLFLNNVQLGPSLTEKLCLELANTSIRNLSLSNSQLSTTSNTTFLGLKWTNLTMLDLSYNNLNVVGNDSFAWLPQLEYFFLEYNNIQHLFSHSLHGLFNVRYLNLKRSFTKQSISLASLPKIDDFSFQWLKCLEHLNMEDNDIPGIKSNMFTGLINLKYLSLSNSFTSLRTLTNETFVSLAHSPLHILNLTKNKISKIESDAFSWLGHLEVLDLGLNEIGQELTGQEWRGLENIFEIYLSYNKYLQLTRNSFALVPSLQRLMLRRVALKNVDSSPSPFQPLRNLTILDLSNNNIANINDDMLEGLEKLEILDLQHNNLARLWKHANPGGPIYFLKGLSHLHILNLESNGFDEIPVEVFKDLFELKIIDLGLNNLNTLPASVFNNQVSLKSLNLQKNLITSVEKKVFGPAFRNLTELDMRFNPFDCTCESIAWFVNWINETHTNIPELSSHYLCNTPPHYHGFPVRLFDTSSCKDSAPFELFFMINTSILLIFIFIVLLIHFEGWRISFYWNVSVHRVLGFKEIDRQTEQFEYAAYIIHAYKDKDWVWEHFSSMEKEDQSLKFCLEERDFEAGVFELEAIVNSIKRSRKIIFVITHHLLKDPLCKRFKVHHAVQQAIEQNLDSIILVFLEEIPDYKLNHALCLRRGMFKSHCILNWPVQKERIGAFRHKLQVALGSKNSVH
# [13] = Solubility of the compound; format: physicochemical
# [14] = Intrinsic clearance in Sprague-Dawley rat liver microsomes assessed per mg protein at 1 uM measured after 60 mins; format: ADME, Microsome; conditions: read-out: CLH
# [15] = target: T1, Toll-like receptor 7 (Homo sapiens) (UniProt Q9NYK1); assay: Agonist activity at human TLR7 expressed in HEK293 cells measured after 6 hrs by NF-kappaB luciferase reporter gene assay; format: cell-based
# T1 sequence (whole entry): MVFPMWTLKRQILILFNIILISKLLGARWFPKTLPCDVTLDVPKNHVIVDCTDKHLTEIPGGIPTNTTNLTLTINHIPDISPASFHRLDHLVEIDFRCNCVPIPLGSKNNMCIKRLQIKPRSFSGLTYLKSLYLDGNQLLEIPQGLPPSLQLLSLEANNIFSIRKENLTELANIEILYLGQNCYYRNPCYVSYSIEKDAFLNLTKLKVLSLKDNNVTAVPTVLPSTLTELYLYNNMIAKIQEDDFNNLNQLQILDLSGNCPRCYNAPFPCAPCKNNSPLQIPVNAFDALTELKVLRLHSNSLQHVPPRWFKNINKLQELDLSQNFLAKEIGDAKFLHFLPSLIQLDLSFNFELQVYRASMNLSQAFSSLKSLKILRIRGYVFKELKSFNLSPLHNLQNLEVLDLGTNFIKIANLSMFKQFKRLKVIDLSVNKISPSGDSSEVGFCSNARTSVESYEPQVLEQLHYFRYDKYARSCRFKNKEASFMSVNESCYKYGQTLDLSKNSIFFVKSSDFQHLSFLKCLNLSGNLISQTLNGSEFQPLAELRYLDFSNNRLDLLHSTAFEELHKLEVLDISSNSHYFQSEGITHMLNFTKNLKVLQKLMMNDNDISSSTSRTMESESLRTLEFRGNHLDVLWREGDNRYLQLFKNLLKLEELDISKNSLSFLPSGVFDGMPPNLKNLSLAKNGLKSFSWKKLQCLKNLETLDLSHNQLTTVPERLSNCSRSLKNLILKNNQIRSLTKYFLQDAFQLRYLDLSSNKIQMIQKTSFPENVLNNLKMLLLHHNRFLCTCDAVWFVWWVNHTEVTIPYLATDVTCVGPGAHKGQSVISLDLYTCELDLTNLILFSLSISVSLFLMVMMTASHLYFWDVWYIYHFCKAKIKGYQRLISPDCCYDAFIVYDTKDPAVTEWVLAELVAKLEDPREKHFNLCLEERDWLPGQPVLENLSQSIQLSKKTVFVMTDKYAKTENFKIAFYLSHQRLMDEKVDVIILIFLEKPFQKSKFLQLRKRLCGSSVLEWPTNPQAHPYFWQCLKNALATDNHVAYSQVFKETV
# [16] = Oral bioavailability in cynomolgus monkey at 30 mg/kg, measured after 24 hrs; format: ADME, organism-based, Macaca fascicularis; conditions: in vivo
# [17] = Intrinsic clearance in dog liver microsomes assessed per mg protein at 1 uM measured after 60 mins; format: ADME, Canis lupus familiaris, Microsome; conditions: read-out: CLH
# [18] = Intrinsic clearance in Sprague-Dawley rat hepatocytes at 1 uM measured after 120 mins; format: ADME, cell-based, Hepatocyte; conditions: 2 h
# [19] = Oral bioavailability in cynomolgus monkey at 9 mg/kg, measured after 24 hrs; format: ADME, organism-based, Macaca fascicularis; conditions: in vivo
# [20] = Oral bioavailability in cynomolgus monkey at 3 mg/kg, measured after 24 hrs; format: ADME, organism-based, Macaca fascicularis; conditions: in vivo
# [21] = target: T1, Toll-like receptor 7 (Homo sapiens); assay: Activation of TLR7 in human PBMCs incubated for overnight duration followed by compound-treated cell supernatant conditioned media transfer to HCV1b transfected human HuH7-luc/neo replicon cells assessed as induction of INFalpha-mediated suppression of virus growth by firefly-luciferase reporter gene assay
# [22] = AUC(0 to last) in cynomolgus monkey plasma at 3 mg/kg, administered through oral gavage measured after 24 hrs; format: ADME, organism-based, Macaca fascicularis; set-up: dose 3 mg/kg, time 0 - last, route oral
# [23] = target: Toll-like receptor 4 (Homo sapiens) (UniProt O00206); assay: Agonist activity at wild-type human TLR4 expressed in HEK293 cells up to 25 uM measured after 6 hrs by NF-kappaB luciferase reporter gene assay; format: cell-based
# Toll-like receptor 4 (Homo sapiens), sequence (O00206 whole entry): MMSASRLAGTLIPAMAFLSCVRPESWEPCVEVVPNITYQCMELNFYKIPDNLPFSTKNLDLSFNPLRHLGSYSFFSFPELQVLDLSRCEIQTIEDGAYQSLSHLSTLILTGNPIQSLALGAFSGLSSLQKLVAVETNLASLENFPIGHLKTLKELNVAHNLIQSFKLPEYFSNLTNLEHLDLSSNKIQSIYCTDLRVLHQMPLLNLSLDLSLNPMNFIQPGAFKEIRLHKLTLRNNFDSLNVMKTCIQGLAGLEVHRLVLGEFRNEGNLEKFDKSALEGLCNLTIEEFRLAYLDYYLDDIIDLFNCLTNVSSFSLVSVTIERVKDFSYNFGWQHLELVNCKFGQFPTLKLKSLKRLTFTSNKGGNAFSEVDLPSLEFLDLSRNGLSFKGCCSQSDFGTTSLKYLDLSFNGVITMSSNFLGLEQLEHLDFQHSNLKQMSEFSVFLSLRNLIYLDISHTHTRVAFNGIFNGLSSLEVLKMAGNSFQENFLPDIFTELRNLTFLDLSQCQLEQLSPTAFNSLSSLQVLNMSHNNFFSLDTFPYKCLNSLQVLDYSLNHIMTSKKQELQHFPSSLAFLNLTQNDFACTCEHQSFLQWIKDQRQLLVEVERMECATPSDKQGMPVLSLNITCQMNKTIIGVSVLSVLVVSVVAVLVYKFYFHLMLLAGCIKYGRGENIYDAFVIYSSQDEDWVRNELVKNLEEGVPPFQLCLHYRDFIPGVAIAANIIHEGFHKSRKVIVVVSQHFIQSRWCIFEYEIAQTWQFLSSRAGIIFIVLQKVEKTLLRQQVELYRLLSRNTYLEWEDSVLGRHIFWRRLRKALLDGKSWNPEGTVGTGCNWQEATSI
# [24] = Cmax in cynomolgus monkey plasma at 9 mg/kg, administered through oral gavage measured after 24 hrs; format: ADME, organism-based, Macaca fascicularis; set-up: dose 9 mg/kg, route oral
# [25] = target: Toll-like receptor 2 (Homo sapiens) (UniProt O60603); assay: Agonist activity at wild-type human TLR2 expressed in HEK293 cells up to 25 uM measured after 6 hrs by NF-kappaB luciferase reporter gene assay; format: cell-based
# Toll-like receptor 2 (Homo sapiens), sequence (O60603 whole entry): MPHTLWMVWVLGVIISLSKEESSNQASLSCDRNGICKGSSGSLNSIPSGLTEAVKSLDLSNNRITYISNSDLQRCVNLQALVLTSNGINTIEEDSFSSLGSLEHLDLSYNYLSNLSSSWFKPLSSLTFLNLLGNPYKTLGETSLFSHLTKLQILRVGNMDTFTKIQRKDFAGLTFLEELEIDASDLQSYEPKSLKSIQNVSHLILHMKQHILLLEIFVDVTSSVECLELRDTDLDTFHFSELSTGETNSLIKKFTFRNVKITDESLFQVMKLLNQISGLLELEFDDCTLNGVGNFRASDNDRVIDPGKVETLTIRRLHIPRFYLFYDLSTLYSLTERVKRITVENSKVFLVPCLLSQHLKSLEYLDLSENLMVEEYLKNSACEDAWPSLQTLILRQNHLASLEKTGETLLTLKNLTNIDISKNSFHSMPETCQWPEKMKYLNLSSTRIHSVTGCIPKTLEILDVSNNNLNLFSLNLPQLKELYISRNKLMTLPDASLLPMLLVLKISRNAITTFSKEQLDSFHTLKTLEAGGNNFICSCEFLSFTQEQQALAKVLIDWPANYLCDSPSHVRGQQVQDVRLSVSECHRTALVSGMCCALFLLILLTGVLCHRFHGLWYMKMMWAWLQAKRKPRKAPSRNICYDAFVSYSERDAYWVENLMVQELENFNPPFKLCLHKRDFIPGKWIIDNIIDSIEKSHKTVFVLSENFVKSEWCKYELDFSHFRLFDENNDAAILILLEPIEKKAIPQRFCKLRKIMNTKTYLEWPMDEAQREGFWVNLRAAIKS
# [26] = Tmax in C57Bl/6 mouse at 1 to 50 mg/kg, po; format: ADME, organism-based; conditions: in vivo
# [27] = Intrinsic clearance in human liver microsomes assessed per mg protein at 1 uM measured after 60 mins; format: ADME, Microsome; conditions: read-out: CLH
# [28] = Plasma concentration in C57Bl/6 mouse infected with HBV genotype D at 5 mg/kg, po dosed once per week for 8 weeks and measured after 164 hrs after dosing prior to subsequent dosing; format: ADME, organism-based; conditions: in vivo
# [29] = Ratio of drug level in Sprague-Dawley rat liver to plasma at 10 mg/kg, po; format: ADME, organism-based; conditions: liver and plasma
# [30] = Intrinsic clearance in dog hepatocytes at 1 uM measured after 120 mins; format: ADME, cell-based, Canis lupus familiaris, Hepatocyte; conditions: 2 h
smiles,measurement,setting,value
CCCC[C@@H](CCO)Nc1nc(N)ncc1OC,Tmax,[1],1 h
same,Cmax,[2],1710 ng/g
same,CLH,[3],20 µL/min
same,Cp,[4],245 ng/mL
same,Activity,[5],inactive
same,Tmax,[6],0.5 h
same,Cmax,[7],7 ng/mL
same,Tmax,[8],1 to 2 h
same,CLH,[9],18 µL/min
same,Fa,[10],55%
same,AUC(0-t) at 24 h,[11],583 ng·h/mL
same,Activity,[12],inactive
same,solubility,[13],Soluble
same,microsomal CLint at 1 µM,[14],60 µL/min/mg
same,LED,[15],1.6 µM
same,bioavailability,[16],3.9%
same,microsomal CLint at 1 µM,[17],7 µL/min/mg
same,CLH,[18],68 µL/min
same,bioavailability,[19],1.5%
same,bioavailability,[20],0.8%
same,LED,[21],0.5 µM
same,AUC(0-t) at 24 h,[22],11 ng·h/mL
same,Activity,[23],inactive
same,Cmax,[24],34 ng/mL
same,Activity,[25],inactive
same,Tmax,[26],0.5 to 1 h
same,microsomal CLint at 1 µM,[27],< 4 µL/min/mg
same,Drug uptake,[28],Not Active
same,Kp,[29],14
same,CLH,[30],99 µL/min
